Structures can show the parent of a compound that is named as a salt. Where two headings read alike, the source gives them in different places.
What was measured:
[1] = target: T1, rat CB2 receptor (Rattus norvegicus, UniProt Q9QZN9); assay: Displacement of 3H-CP55940 from rat CB2 receptors; format: binding
T1 construct: expressed in transfected cells
T1 sequence (Q9QZN9 1-360): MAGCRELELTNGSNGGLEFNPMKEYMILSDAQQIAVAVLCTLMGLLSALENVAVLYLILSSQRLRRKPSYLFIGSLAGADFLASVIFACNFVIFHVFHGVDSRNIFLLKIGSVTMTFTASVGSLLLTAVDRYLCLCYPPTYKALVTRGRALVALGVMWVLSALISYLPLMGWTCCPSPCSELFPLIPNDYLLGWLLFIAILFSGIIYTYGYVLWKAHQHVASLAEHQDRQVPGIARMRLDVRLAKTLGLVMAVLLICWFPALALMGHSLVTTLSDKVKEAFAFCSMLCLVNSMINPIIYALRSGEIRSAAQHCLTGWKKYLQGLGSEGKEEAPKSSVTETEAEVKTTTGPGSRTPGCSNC
Method: (§1) The methods of Felder et al. (Mol. Pharmaocol. 48:443-450, 1995) were utilized with minor modifications. Specifically, membrane homogenates from cells stably or transiently expressing the human or rat CB2 receptor were washed by centrifugation and diluted into a 50 mM Tris HCl (pH 7.4), 5 mM MgCl2, 2.5 mM EDTA, and 0.1% BSA buffer. Specific binding of 3H-CP55940 was defined with 1 μM CP55940. The ability of compounds to displace specific 3H-CP55940 binding was tested over a range of concentrations in the Tris, MgCl2, EDTA, BSA buffer in the presence of 1% dimethyl sulfoxide by incubating at room temperature for 90 minutes in a volume of 300 μl. Unifilter 96-well microplates pretreated with 0.5% polyvinylpyrrolidone, 0.1% polysorbate 20 in water were washed three times with cold Tris buffer. The reaction mixture was then transferred to the filter plate immediately before terminating the incubation by rapid filtration and three 200 μl washes with cold Tris buffer. After the filter plates dried, microscint 20 was added to each well, the plate sealed and counted for determination of disintegrations per minute. The displacement curves were graphed and the resulting Ki values determined utilizing Graphpad Prism.

[2] = target: T2, hCB2 (Homo sapiens, UniProt P34972); assay: Displacement of 3H-CP55940 from human CB2 receptors; format: binding; design: expressed in transfected cells; conditions: 3H-CP55940 displacement
Method: as §1

[3] = target: T2, hCB2; assay: CB2 in vitro functional assay (SPA based GTP-γ-35S binding, agonist mode); format: biochemical
Method: (§2) Exemplified compounds are tested in agonist mode using a SPA based GTP-γ-^35S binding assay. All assay components are prepared in assay buffer made up of 20 mM HEPES, 100 mM NaCl, 5 mM MgCl2, (pH 7.4 at room temperature). Semi-log compound dilutions are done in assay buffer containing BSA (final 0.125%). GTP-γ^35-S binding is measured in a 96 well format using a whole membrane capture technique for the CB1 assay and modifications of an antibody capture technique previously described (DeLapp et al. J Pharmacol Exp Ther 289:946-955, 1999) for the CB2 assay. All incubations are done at room temperature.
hCB2-Sf9 membranes and GDP (1 uM final) are added to assay buffer and homogenized. Diluted compounds and membranes are added to the assay plate and pre-incubated for 15 minutes. This is followed by addition of GTP-γ-^35S ([…] final) and another 35 minute incubation. Next a mixture containing Nonidet P40 detergent (0.2% final), anti-Gi antibody (final dilution of 1:362), and 1.25 mg anti-rabbit antibody scintillation proximity assay beads are added. The plates are then sealed, vortexed, and incubated for an additional 2 hours before centrifuging and counting as for CB1.
To analyze data, first subtract background from all wells. Determine percent agonist efficacy by normalizing agonist/inverse agonist dose response data to a full agonist (methanandamide) response. […]

[4] = target: T3, hCB1 (Homo sapiens, UniProt P21554); assay: CB1 in vitro functional assay (SPA based GTP-γ-35S binding, agonist mode); format: biochemical
T3 construct: expressed in transfected cells; host or cells: CHO cells (membranes)
Method: as §2
hCB1-CHO membranes, GDP (1 uM final), and saponin (10 ug/mL final) are added to assay buffer and homogenized. Diluted compounds, GTP-γ-^35S (500 nM final) and membranes are added to the assay plate and incubated for 30 minutes. Then 1 mg/well Wheatgerm Agglutinin SPA bead is added, and the plates are sealed, vortexed, and incubated for an additional hour. Plates are then centrifuged at 700×g for 10 minutes and counted for 1 minute per well using a scintillation counter.
To analyze data, first subtract background from all wells. Determine percent agonist efficacy by normalizing agonist/inverse agonist dose response data to a full agonist (methanandamide) response. Analyze the data using a 4-parameter logistic reduced fit with Activity Base and XLFit3.

[5] = tested on: male Lewis rats; assay: Monoiodoacetate (MIA) model, incapacitance testing; format: in vivo; conditions: rat, single dose
Method: For all studies male Lewis rats of approximately 8 weeks of age at the time of MIA injection are used to measure pain in the MIA model. The rats are housed in groups of 2 or 3 per cage and maintained in a constant temperature and on a 12 hour light/12 hour dark cycle. Animals have free access to food and water at all times except during data collection.
In the standard MIA model the right knees of each rat are injected with 0.3 mg MIA in 50 ul of saline and the left knees with 50 ul of saline. Pain is measured at varying times after MIA injection (not normally before 10 day post MIA injection) using incapacitance testing. This measures the difference in hind paw weight bearing between the MIA and saline injected knees, and each measurement is the average of 3 separate measurements each measured over 1 second.
For studies with CB2 agonists rats are randomized into dose groups (n=5 or 6) and then dosed once with the compound under investigation. Dosing is staggered by 15 minutes for each rat and at a predetermined time post-dose (usually 2 hours), pain measured using incapacitance testing. Studies are routinely run with 4 groups, vehicle (1% carboxy methyl cellulose in water plus 0.25% polysorbate 80) and 3 compound groups which can be either single compounds at a single dose or the same compound at 3 doses. Results are reported as the difference in weight bearing between saline and MIA injected knees and statistical comparisons are made between vehicle treated and compound treated animals to assess the effect of compounds on knee pain in the model.

[6] = Dose-ranging toxicity study in beagle dogs; format: in vivo, dog; conditions: both sexes, beagle, dog, 30 mg/kg single oral dose, plasma
Method: (§3) One male and one female beagle dog are used to evaluate the acute toxicity after a single oral gavage dose of CB2 agonist. The dogs are housed individually and maintained in a constant temperature and on a 12 hour light/12 hour dark cycle. CB2 agonist is prepared in vehicle (1% hydroxyethylcellulose, 0.25% polysorbate 80, and 0.05% Dow Corning® Antifoam 1510-US in purified water) and administered by oral gavage at a dose volume of 2 mL/kg. Dogs are observed for mortality and clinical observations (before dosing, 2 hours postdose, in the afternoon and daily thereafter). Food consumption is assessed by daily visual assessment of food remaining. Blood is collected before dosing and 48 hours after dosing to evaluate effects on haematology and clinical chemistry parameters. Blood is collected at 0.5, 1, 2, 4, 8, and 24 hours postdose to evaluate toxicokinetic plasma drug concentrations.

[7] = tested on: beagle dog; assay: Dose-ranging toxicity study in beagle dogs; format: in vivo; conditions: single oral dose of 30 mg/kg
Method: as §3

[8] = tested on: Male Harlan Sprague Dawley rats; assay: Chemotherapy-induced pain assay (paclitaxel, von Frey); format: in vivo, rat; conditions: for Mean paw withdrawal latencies (mean ± SE): 1 hour post-dose, n of 12
Method: Male Harlan Sprague Dawley rats 150-200 grams are acclimated to the vivarium for 7 days. The animals are maintained in a constant temperature and on a 12 hour light/12 hour dark cycle, and housed in groups of 3-4 with water and food ad libitum. Twice daily dosing of compound at 10 mg/kg (oral), morphine at 5 mg/kg, and vehicle commences on Day 1 of the study, and continues through the duration of the study (Day 18). Paclitaxel at 1 mg/kg (intraperitoneal) is administered on Days 2, 4, 6, and 8, for a cumulative dose of 4 mg/kg in order to induce chemotherapy-induced peripheral neuropathy.
Rats are placed in individual plexiglass chambers with a wire mesh platform bottom to allow access to the hindpaw. After an acclimation period of 15 minutes to 1 hour, the mid-plantar hind paws are assessed within the sciatic nerve distribution. A series of 8 von Frey hairs with logarithmically incremental stiffness (0.41, 0.70, 1.20, 2.00, 3.63, 5.50, 8.50, and 15.10 g) are applied to the hind paws. The von Frey hairs are presented perpendicular to the plantar surface with sufficient force to cause slight bending. Stimuli are presented at intervals of several seconds. A positive response is noted if the paw is sharply withdrawn or if flinching immediately upon removal of the hair is observed. On study days, behavioral endpoints are evaluated 1 hour post-dose. Score patterns are evaluated using the Dixon up-down method, and translated to a response threshold (1980, Ann Rev Pharmacol Toxicol 20:441-462). The maximum applied force is 15.10 grams. The initial behavior assessment occurs on Day 10 of the study, and subsequent measures are made on Study Days 12, 15, and 18.
Results are expressed as mean values with standard errors of the mean (mean±SE) for an n of 12 per group. All statistical evaluations are conducted utilizing a one-way ANOVA followed by comparison to the control group by Dunnett's Method. Statistical significance is assumed when p<0.05. Statistical analyses are performed using JMP statistical analysis software (SAS Research Institute, version 6.0.2).

T2 sequence (P34972 whole entry): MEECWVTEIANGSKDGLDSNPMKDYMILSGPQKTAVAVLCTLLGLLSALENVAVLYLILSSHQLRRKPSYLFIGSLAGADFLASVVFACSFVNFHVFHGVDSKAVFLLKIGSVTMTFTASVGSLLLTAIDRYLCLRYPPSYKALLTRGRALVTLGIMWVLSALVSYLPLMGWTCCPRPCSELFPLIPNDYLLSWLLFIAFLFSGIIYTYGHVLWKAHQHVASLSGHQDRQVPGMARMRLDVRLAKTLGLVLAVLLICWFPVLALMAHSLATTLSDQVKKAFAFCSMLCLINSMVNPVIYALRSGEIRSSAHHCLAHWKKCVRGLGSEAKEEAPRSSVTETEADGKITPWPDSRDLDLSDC
T3 sequence (P21554 whole entry): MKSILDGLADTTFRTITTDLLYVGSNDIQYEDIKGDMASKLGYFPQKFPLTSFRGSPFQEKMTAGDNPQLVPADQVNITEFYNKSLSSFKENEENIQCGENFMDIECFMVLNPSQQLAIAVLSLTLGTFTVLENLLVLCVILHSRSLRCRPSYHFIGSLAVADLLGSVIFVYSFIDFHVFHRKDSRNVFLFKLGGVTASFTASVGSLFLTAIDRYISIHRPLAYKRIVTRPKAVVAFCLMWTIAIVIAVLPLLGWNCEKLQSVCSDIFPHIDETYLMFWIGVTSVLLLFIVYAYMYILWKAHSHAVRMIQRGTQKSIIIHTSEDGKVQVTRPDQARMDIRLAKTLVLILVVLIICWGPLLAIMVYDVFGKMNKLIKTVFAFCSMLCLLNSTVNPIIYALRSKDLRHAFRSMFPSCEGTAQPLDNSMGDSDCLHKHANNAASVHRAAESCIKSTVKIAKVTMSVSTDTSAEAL

Q: Which results are given for `CC(=O)N1CCN(c2nc(C)nc3c2nc(-c2ccccc2Cl)n3CC(C)(C)O)CC1` [Example 13, 1-[4-[8-(2-Chlorophenyl)-9-(2-hydroxy-2-methyl-propyl)-2-methyl-purin-6-yl]piperazin-1-yl]ethanone hydrochloride]?
A: Ki ([1]; 3H-CP55940 displacement, rat CB2, read-out: rat receptor Ki value): 215 nM; Ki [2]: 65.2 nM

Q: What does the source list for `COCCCn1c(-c2ccccc2Cl)nc2c(N3CCN(CCF)CC3)nc(C)nc21` [Example 6, 8-(2-Chlorophenyl)-6-[4-(2-fluoroethyl)piperazin-1-yl]-9-(3-methoxypropyl)-2-methyl-purine hydrochloride]?
A: EC50 [3]: 2.7 nM; EC50 [4]: > 100000 nM

Q: For `Cc1nc(N2CCN(C)CC2)c2nc(-c3ccccc3Cl)n(C(C)CO)c2n1.Cl` (single isomer, unassigned; isomer 1) [Example 18, 2-[8-(2-Chloro-phenyl)-2-methyl-6-(4-methyl-piperazin-1-yl)-purin-9-yl]-propan-1-ol hydrochloride, Isomer 1], which “pain versus vehicle (difference in hind paw weight bearing)” value ([5]; dose of 0.3 mg/kg) is on record?
A: reduce pain versus vehicle

Q: What does the source list for `COC(C)(C)Cn1c(-c2ccccc2Cl)nc2c(N3CCN(C(C)=O)CC3)nc(C)nc21` [Example 8, 1-[4-[8-(2-Chlorophenyl)-9-(2-methoxy-2-methyl-propyl)-2-methyl-purin-6-yl]piperazin-1-yl]ethanone]?
A: Ki [1]: 37.5 nM; Ki [2]: 142 nM

Q: For `Cc1nc(N2CCN(C)CC2)c2nc(-c3ccccc3Cl)n(C(C)CO)c2n1.Cl` (single isomer, unassigned; isomer 2) [Example 19, 2-[8-(2-Chloro-phenyl)-2-methyl-6-(4-methyl-piperazin-1-yl)-purin-9-yl]-propan-1-ol hydrochloride, Isomer 2], which EC50 ([3]; agonist mode, hCB2-Sf9 membranes, read-out: relative EC50 value for CB2) is on record?
A: 22.4 nM

Q: And the “pain versus vehicle (difference in hind paw weight bearing)” value ([5]; dose of 0.3 mg/kg)?
A: reduce pain versus vehicle

Q: What about the “pain versus vehicle (difference in hind paw weight bearing)” value ([5]; dose of 1 mg/kg) of the same compound?
A: reduce pain versus vehicle

Q: What about the AUC(0-t) ([6]; read-out: mean Area-Under the Curve from 0-24 hours (AUC0-24hr)) of the same compound?
A: 44500 ng·h/mL

Q: And the Cmax ([6]; read-out: mean maximum concentration (Cmax))?
A: 7540 ng/mL

Q: What about the faeces ([7]; female dog) of the same compound?
A: Decreased faeces

Q: And the food consumption ([7]; female dog)?
A: minimal decreased food consumption

Q: What about the “decrease in reticulocyte count, change relative to pre-dose” value ([7]; female dog, 48 hours after dosing) of the same compound?
A: 39%

Q: And the Post-dose clinical observations ([7]; one male and one female dog)?
A: limited to vomiting and dilated pupils

Q: And the EC50 ([4]; agonist mode, hCB1-CHO membranes, read-out: relative EC50 value for CB1)?
A: > 100000 nM

Q: And the “allodynia compared to both vehicle and morphine-treated animals” value ([8]; 10 mg/kg oral twice daily, over the duration of the study (Day 18))?
A: developed less allodynia

Q: And the “Mean paw withdrawal latencies (mean ± SE)” value ([8]; Day 10, 10 mg/kg oral twice daily)?
A: 11.25 ± 1.31

Q: What about the “Mean paw withdrawal latencies (mean ± SE)” value ([8]; Day 12, 10 mg/kg oral twice daily) of the same compound?
A: 7.38 ± 0.95

Q: And the “Mean paw withdrawal latencies (mean ± SE)” value ([8]; Day 15, 10 mg/kg oral twice daily)?
A: 7.90 ± 1.04

Q: And the “Mean paw withdrawal latencies (mean ± SE)” value ([8]; Day 18, 10 mg/kg oral twice daily)?
A: 6.02 ± 0.72

Q: Which results are given for `CN1CC[C@]23c4c5ccc(O)c4O[C@H]2[C@@H](O)C=C[C@H]3[C@H]1C5` [Morphine, reference compound]?
A: Mean paw withdrawal latencies (mean ± SE) ([8]; Day 10, 5 mg/kg twice daily): 8.16 ± 1.22; Mean paw withdrawal latencies (mean ± SE) ([8]; Day 12, 5 mg/kg twice daily): 3.67 ± 0.30; Mean paw withdrawal latencies (mean ± SE) ([8]; Day 15, 5 mg/kg twice daily): 3.84 ± 0.45; Mean paw withdrawal latencies (mean ± SE) ([8]; Day 18, 5 mg/kg twice daily): 3.46 ± 0.42
